Results on 24 compounds are retold here after US20260374754A1, “N-((ISOQUINOLIN-6-YL)METHYL)-1H-PYRAZOLE-4-CARBOXAMIDE DERIVATIVES AS PLASMA KALLIKREIN INHIBITORS FOR THE TREATMENT OF HEREDITARY ANGIODEMA” (Takeda Pharmaceutical Company Limited, priority 2022, published 2026).

Where a name gives a salt, the structure may show the parent alone.

The target in the first assay is human activated kallikrein enzyme (Homo sapiens, UniProt P03952). Kind of assay: Inhibition of human activated plasma kallikrein, fluorogenic PFR-AMC substrate, 500 pM enzyme format. It is filed as biochemical. The note with it: 500 pM activated kallikrein; 300 μM PFR-AMC; 30 min preincubation; 10 min room temperature; pH 7.5; read-out: Primary Dose Response Assay: Average EC50. The method, then: Compounds were evaluated for inhibition of the human activated kallikrein enzyme in two formats of an assay employing a fluorogenic peptide substrate. In one assay format, the concentrations of reagents were as follows: 20 mM Tris pH 7.5, 1 mM EDTA, 150 mM sodium chloride, 0.1% PEG-400, 0.1% Triton X-100, 500 pM activated kallikrein enzyme, 300 μM Pro-Phe-Arg-7-amido-4-methylcoumarin (PFR-AMC) substrate. Prior to reaction initiation with substrate, enzyme and inhibitors were preincubated for 30 min at room temperature. After initiation with substrate, reactions were incubated for 10 min at room temperature and fluorescence emission at 460 nm from 380 nm excitation measured with a microplate reader. In another assay format, the concentrations of reagents were as follows: 20 mM Tris pH 7.5, 1 mM EDTA, 150 mM sodium chloride, 0.1% PEG-400, 0.1% Triton X-100, 5 pM activated kallikrein enzyme, 300 uM PFR-AMC substrate. Prior to reaction initiation with substrate, enzyme and inhibitors were preincubated for 30 min at room temperature. After initiation with substrate, reactions were incubated for 18 hr at room temperature and fluorescence emission at 460 nm from 380 nm excitation measured with a microplate reader.
Chain of human activated kallikrein enzyme (P03952 391-638 limits assumed): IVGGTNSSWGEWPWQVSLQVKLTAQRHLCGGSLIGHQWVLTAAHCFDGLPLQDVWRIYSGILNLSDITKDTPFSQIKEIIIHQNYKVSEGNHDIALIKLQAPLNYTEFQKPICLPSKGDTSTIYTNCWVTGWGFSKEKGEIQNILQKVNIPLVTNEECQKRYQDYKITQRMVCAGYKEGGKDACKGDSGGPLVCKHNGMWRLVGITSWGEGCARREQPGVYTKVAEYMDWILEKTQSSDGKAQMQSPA
Chain of human activated kallikrein enzyme (P03952 20-390 partner limits assumed): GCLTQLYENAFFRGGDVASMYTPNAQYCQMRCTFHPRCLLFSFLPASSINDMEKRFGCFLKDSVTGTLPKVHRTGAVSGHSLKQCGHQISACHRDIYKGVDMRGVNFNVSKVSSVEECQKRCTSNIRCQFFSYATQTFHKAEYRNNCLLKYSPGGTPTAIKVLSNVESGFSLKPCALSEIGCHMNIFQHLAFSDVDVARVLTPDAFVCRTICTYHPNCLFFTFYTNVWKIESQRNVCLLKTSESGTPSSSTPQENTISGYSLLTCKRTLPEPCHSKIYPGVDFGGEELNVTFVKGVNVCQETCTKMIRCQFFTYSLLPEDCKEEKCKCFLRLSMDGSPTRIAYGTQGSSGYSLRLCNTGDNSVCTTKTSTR
Table 35 provides the results of the assay in the format with 500 pM activated kallikrein assay.
Usually EC50 stands for the midpoint of the concentration-response curve. Take `Cc1cc2nc(Cn3cc(C(=O)NCc4c(C)cc5c(N)nccc5c4C)cn3)cn2cc1C` [Example 102, N-((1-amino-5,7-dimethylisoquinolin-6-yl)methyl)-1-((6,7-dimethylimidazo[1,2-a]pyridin-2-yl)methyl)-1H-pyrazole-4-carboxamide]: the EC50 was less than 1 nM. The same measure, in the same setting: as for `Cc1cc2c(N)nccc2c(C)c1CNc1cc(OC(C)c2ccc(Cn3cccn3)cc2)cnn1` (stereo not drawn) [Example 275, 6-(((5-(1-(4-((1H-pyrazol-1-yl)methyl)phenyl)ethoxy)pyridazin-3-yl)amino)methyl)-5,7-dimethylisoquinolin-1-amine], the figure is less than 1 nM; as for `Cc1cc2c(N)nccc2c(C)c1CNC(=O)c1cnn(CC(=O)Nc2ccccc2)c1` [Example 154, N-((1-amino-5,7-dimethylisoquinolin-6-yl)methyl)-1-(2-oxo-2-(phenylamino)ethyl)-1H-pyrazole-4-carboxamide], 100 to 1000 nM.

`Cc1ccc2cc(Cn3cc(C(=O)NCc4c(C)cc5c(N)nccc5c4C)cn3)ccc2n1` [Example 64, N-((1-amino-5,7-dimethylisoquinolin-6-yl)methyl)-1-((2-methylquinolin-6-yl)methyl)-1H-pyrazole-4-carboxamide]: the 50% effective concentration (EC50) is less than 1 nM. Still for that read-out and setting: with `Cc1cc2c(N)nccc2c(C)c1CNc1cc(OCc2ccc3c(cnn3C)c2)cnn1` [Example 413, 5,7-dimethyl-6-(((5-((1-methyl-1H-indazol-5-yl)methoxy)pyridazin-3-yl)amino)methyl)isoquinolin-1-amine] the figure was 1 to 10 nM; with `Cc1cc2c(N)nccc2c(C)c1CNc1cc(NCc2ccc(OCc3ncco3)cc2)ncn1` [Example 351, N^4-((1-amino-5,7-dimethylisoquinolin-6-yl)methyl)-N^6-(4-(oxazol-2-ylmethoxy)benzyl)pyrimidine-4,6-diamine, formic acid salt], 1 to 10 nM. Regarding `Cc1cc2c(N)nccc2c(C)c1CNC(=O)c1cnn(C(CNC(=O)OC(C)(C)C)c2ccccc2)c1` (stereo not drawn) [Example 181, tert-butyl (2-(4-(((1-amino-5,7-dimethylisoquinolin-6-yl)methyl)carbamoyl)-1H-pyrazol-1-yl)-2-phenylethyl)carbamate], the EC50 was greater than 1000 nM.

In the case of `Cc1cc2c(N)nccc2c(C)c1CNc1cc(OC(C)c2ccc3ncc(Cl)cc3c2)cnn1` (stereo not drawn) [Example 420, 6-(((5-(1-(3-chloroquinolin-6-yl)ethoxy)pyridazin-3-yl)amino)methyl)-5,7-dimethylisoquinolin-1-amine formic acid salt], the EC50 is less than 1 nM. In the case of `Cc1ccccc1Cn1cc(C(=O)NCc2c(C)cc3c(N)nccc3c2C)cn1` [Example 40, N-((1-amino-5,7-dimethylisoquinolin-6-yl)methyl)-1-(2-methylbenzyl)-1H-pyrazole-4-carboxamide], the EC50 is 100 to 1000 nM. On the same count and under the same terms, as for `Cc1cc2c(N)nccc2c(C)c1CNc1cc(NCc2ccc3cnccc3c2)ncn1` [Example 320, N^4-((1-amino-5,7-dimethylisoquinolin-6-yl)methyl)-N^6-(isoquinolin-6-ylmethyl)pyrimidine-4,6-diamine], the figure is 1 to 10 nM; as for `Cc1cc2c(N)nccc2c(C)c1CNc1nccc2c1nnn2Cc1cn2cc(C3CC3)ccc2n1` [Example 254, 6-(((1-((6-cyclopropylimidazo[1,2-a]pyridin-2-yl)methyl)-1H-[1,2,3]triazolo[4,5-c]pyridin-4-yl)amino)methyl)-5,7-dimethylisoquinolin-1-amine], greater than 1000 nM. Still for that read-out and setting: with `Cc1cc2c(N)nccc2c(C)c1CNc1cc(OCc2ccc3nccc(C)c3c2)cnn1` [Example 421, 5,7-dimethyl-6-(((5-((4-methylquinolin-6-yl)methoxy)pyridazin-3-yl)amino)methyl)isoquinolin-1-amine, formic acid] the figure was 1 to 10 nM; with `Cc1cc2c(N)nccc2c(C)c1CNC(=O)c1cnn(Cc2cc3cc(Br)ccc3s2)c1` [Example 51, N-((1-amino-5,7-dimethylisoquinolin-6-yl)methyl)-1-((5-bromobenzo[b]thiophen-2-yl)methyl)-1H-pyrazole-4-carboxamide], less than 1 nM; with `Cc1cc2c(N)nccc2c(C)c1CNC(=O)c1cnn(Cc2ccc3cnccc3c2)c1` [Example 74, N-((1-amino-5,7-dimethylisoquinolin-6-yl)methyl)-1-(isoquinolin-6-ylmethyl)-1H-pyrazole-4-carboxamide], 1 to 10 nM.

Turning to `Cc1cc2c(N)nccc2c(C)c1CNc1cc(OCc2cccc(-n3ccccc3=O)c2)ncn1` [Example 370, 1-(3-(((6-(((1-amino-5,7-dimethylisoquinolin-6-yl)methyl)amino)pyrimidin-4-yl)oxy)methyl)phenyl)pyridin-2(1H)-one], the EC50 lay within 100 to 1000 nM. On the same count and under the same terms, as for `Cc1cc2c(N)nccc2c(C)c1CNc1cc(C(F)c2cn3cc(C4CC4)ccc3n2)ncn1` (stereo not drawn) [Example 405, 6-(((6-((6-cyclopropylimidazo[1,2-a]pyridin-2-yl)fluoromethyl)pyrimidin-4-yl)amino)methyl)-5,7-dimethylisoquinolin-1-amine], the figure is less than 1 nM; as for `Cc1cc2c(N)nccc2c(C)c1CNc1cc(OCc2ccc(CN3CCCCC3=O)cc2)cnn1` [Example 433, 1-(4-(((6-(((1-amino-5,7-dimethylisoquinolin-6-yl)methyl)amino)pyridazin-4-yl)oxy)methyl)benzyl)piperidin-2-one], less than 1 nM; as for `Cc1cc2c(N)nccc2cc1CNc1cc(OCc2ccc(Cn3cccn3)cc2)ncn1` [Example 534, 6-(((6-((4-((1H-pyrazol-1-yl)methyl)benzyl)oxy)pyrimidin-4-yl)amino)methyl)-7-methylisoquinolin-1-amine], 10 to 100 nM.

As to `Cc1cc2c(N)nccc2c(C)c1CNC(=O)c1cnn(Cc2ccccc2C#N)c1` [Example 32, N-((1-amino-5,7-dimethylisoquinolin-6-yl)methyl)-1-(2-cyanobenzyl)-1H-pyrazole-4-carboxamide], the EC50 lay within 100 to 1000 nM.

For the compound `Cc1ccc2ccc(Cn3cc(C(=O)NCc4c(C)cc5c(N)nccc5c4C)cn3)cc2n1` [Example 27, N-((1-amino-5,7-dimethylisoquinolin-6-yl)methyl)-1-((2-methylquinolin-7-yl)methyl)-1H-pyrazole-4-carboxamide], the EC50 is less than 1 nM. The same measure, in the same setting: with `COc1ccc2nc(Cn3cc(C(=O)NCc4c(C)cc5c(N)nccc5c4C)cn3)ncc2c1` [Example 126, N-((1-amino-5,7-dimethylisoquinolin-6-yl)methyl)-1-((6-methoxyquinazolin-2-yl)methyl)-1H-pyrazole-4-carboxamide] the figure was 10 to 100 nM; with `Cc1cc2c(N)nccc2c(C)c1CNc1cc(N(C)Cc2cnc3ccccc3c2)ncn1` [Example 316, N^4-((1-amino-5,7-dimethylisoquinolin-6-yl)methyl)-N^6-methyl-N^6-(quinolin-3-ylmethyl)pyrimidine-4,6-diamine], 10 to 100 nM; with `Cc1cc2c(N)nccc2c(C)c1CNc1ccnc(OCc2ccc(Cn3cccn3)cc2)c1` [Example I-455, 6-(((2-((4-((1H-pyrazol-1-yl)methyl)benzyl)oxy)pyridin-4-yl)amino)methyl)-5,7-dimethylisoquinolin-1-amine], 1 to 10 nM.

Still in this assay, the particulars now being: Primary Dose Response Assay: Average EC50, 500 pM activated kallikrein; 300 μM PFR-AMC; 30 min preincubation; 10 min room temperature; pH 7.5.
`Cc1c(CNC(=O)c2cnn(Cc3ccccc3)c2)c(C)c2ccnc(N)c2c1C` [Example 170, N-((1-amino-5,7,8-trimethylisoquinolin-6-yl)methyl)-1-benzyl-1H-pyrazole-4-carboxamide] had a concentration giving a half-maximal response (EC50) greater than 1000 nM.
